Results taken from patent publication US20260183434A1, “NEW SENESCENCE TRACER GENERATION” (Eberhard Karls Universitaet Tuebingen Medizinische Fakultaet, priority 2023, published 2026).
“And” between values parts separate entries of the source, which are not always exact repeats. Equal entries are not always repeated.

Columns and labels:
HCT116 = test: In vitro tracer uptake (gamma counter) in HCT116 senescence cell model; format: cell-based; settings: 1×10^6 cells, 0.74 MBq tracer, 40 min; for Uptake in % ID per million cells, HCT116 (cntrl): control HCT116 cells; for Uptake in % ID per million cells, HCT116 (sen): senescent HCT116 cells
Experimental: (§1) Cells were cultured in a humidified incubator (Binder, Tuttlingen, Germany) at 37° C. and 5% CO2. Fetal bovine serum (FBS, Sigma of Merck) was heat-inactivated for 30 min at 57° C. for cell culture supplementation. For in vitro uptake experiments, the cells were rinsed with DPBS, harvested with a cell scraper and finally centrifuged. The cell pellet was then washed with DPPS and resuspended in DPBS, before being counted. A suspension of 1×10^6 cells in 1 ml DPBS was incubated with 0.74 MBq of tracer at 37° C. and 5% CO2 for 40 min. After the designated incubation time, the suspension was centrifuged. The cell pellet was transferred into a fresh gamma counter tube (Sarstedt), washed twice with 1 ml DPBS and resuspended in 1 ml DPBS. The uptake was measured with a 2480 Wizard^2 automated gamma counter (Perkin Elmer).

CT26.CL25 (LacZ+) = test: In vitro tracer uptake (gamma counter) in β-galactosidase (LacZ) overexpressing cells; format: cell-based; settings: β-galactosidase (LacZ) overexpression model; 1×10^6 cells, 0.74 MBq tracer, 40 min, 37° C.
Experimental: as §1
(§2) In vitro experiments were performed by uptake quantification in a gamma-counter. In all experiments, 1 million of each of the cell lines were treated with 20 μCi of tracer. After incubation time of 40 minutes, the cells were centrifuged, the supernatant discarded and the cell pellet resuspended in fresh PBS. The samples were then measured in biodistribution tubes in a gamma counter. The tracers were tested first using a β-galactosidase (LacZ) overexpression model of a colon carcinoma cell line (CT26-CL25) and the wild type (CT26) as control (FIG. 2A). Next, the tracers were tested in a senescent cell model: a liver carcinoma cell line (Amp19) treated with ribosomal checkpoint inhibitor (RCI) (FIGS. 2B and 2C).

Amp19 = test: In vitro tracer uptake (gamma counter) in Amp19 senescence cell model; format: cell-based; settings: 1×10^6 cells, 0.74 MBq tracer, 40 min; for Uptake in % ID per million cells, Amp19 (cntrl): control Amp19 cells; for Uptake in % ID per million cells, Amp19 (sen): senescent Amp19 cells (treated with RCI)
Experimental: as §1, §2

CT26 = test: In vitro tracer uptake (gamma counter) in wild type CT26 control cells; format: cell-based; settings: 1×10^6 cells, 0.74 MBq tracer, 40 min, 37° C.
Experimental: as §1, §2

Amp19 tumors [1] = test: Ex vivo autoradiography of Amp19 tumors after tracer administration; format: in vivo, mice; settings: cx-treated (senescent) vs non-senescent control Amp19 tumors, FIG. 5
Experimental: (§3) Animal procedures were approved by the local authorities (Regierungspraesidium Tuebingen, Tuebingen, Germany) and conducted according to the German Animal Welfare Act. The mice used were between 6 and 7 weeks of age. Tumors were implanted by injecting 0.5×10^6 cells s.c. into the right flank of SCID beige mice. When most tumors reached 100 mm^3 (˜3 weeks post inoculation), the animals were randomized into two groups. The groups received 25 mg/kg/d CX-5461 (AdooQ BioScience, Irvine, CA, USA) or vehicle [50 mM monosodium phosphate (Sigma of Merck KGaA, Darmstadt, Germany), pH 4.5]i.p. for five consecutive days.
For autoradiography, the tumors were embedded in the optimal cutting temperature compound (Tissue-Tek® O.C.T., Sakura, Alphen aan den Rijn, Netherlands) and frozen at −20° C. in the cryotome (Leica, Wetzlar, Germany). Cryosections (20 μm) were then attached to microscope slides (SuperFrost® Plus, R. Langenbrinck, Emmendingen, Germany). The slides were exposed overnight to a phosphor screen (Molecular Dynamics of GE Healthcare). The screen was then scanned by the phosphorimager (Storm 840, Amersham of GE Healthcare). The signal intensities of sections were normalized to each other based on decay corrected animal receiving dose with the open-source software ImageJ (National Institute of Health, Bethesda, MD, USA). […]

Amp19 tumors [2] = test: Dynamic PET scans of Amp19 tumor bearing mice; format: in vivo
Experimental: as §3
Anatomical imaging was conducted on a 7 Tesla small animal MRI scanner with a rat whole body coil and Paravision® software (Bruker, Billerica, MA, USA). The animals were then transferred to the PET scanner without moving the animal to ensure co-registration. The animals received 12±1 MBq tracer (determined by a CRC 15-R dose calibrator) was injected through a tail vein catheter, which was subsequently flushed with 50 μl heparinized saline solution. The transmission scan using an external ^57Co point source was performed for the attenuation correction. […]
The list mode raw file was histogrammed and reconstructed with OSEM3D/SP-MAP algorithm implemented in Inveon Acquisition Workplace. […] The tracer uptake was calculated as the percentage of the injected dose per cubic centimeter (% ID/cc). […]

Row | SMILES | Uptake in % ID per million cells, HCT116 (cntrl) (HCT116) [% ID per million cells] | Uptake in % ID per million cells, HCT116 (sen) (HCT116) [% ID per million cells] | Uptake in % ID per million cells, CT26.CL25 (LacZ+) (CT26.CL25 (LacZ+)) | Uptake in % ID per million cells, Amp19 (cntrl) (Amp19) [% ID per million cells] | Uptake in % ID per million cells, Amp19 (sen) (Amp19) [% ID per million cells] | Uptake in % ID per million cells, CT26 (CT26) [% ID per million cells] | Autoradiography signal accumulation in tumors (Amp19 tumors [1]) | Dynamic uptake in tumors (PET) (Amp19 tumors [2]; CX-treated (senescent) vs untreated control Amp19 tumors, tracer i.v., FIG. 4) | Washout of tumor uptake (dynamic PET) (Amp19 tumors [2]; treated and untreated Amp19 tumors, uptake stable, reaches a maximum and plateaus)
1 | OC[C@H]1O[C@@H](Oc2cccnc2[18F])[C@H](O)[C@@H](O)[C@H]1O [[^18F]FPyGal, reference compound] | 0.3438 | 0.1998 | 0.5769 % ID per million cells and 1.117 % ID per million cells | 0.2657 | 0.0639 |  |  |  | 
2 | OC[C@H]1O[C@@H](Oc2ccc(NCCC[18F])cc2COc2c(F)c(F)cc(F)c2F)[C@H](O)[C@@H](O)[C@H]1O [[^18F]ADTFPBGal] | 1.564 | 0.6573 | 4.515 % ID per million cells | 1.085 | 0.205 | 1.403 |  |  | 
3 | OC[C@H]1O[C@@H](Oc2ccc(N3CCN(CCC[18F])CC3)cc2)[C@H](O)[C@@H](O)[C@H]1O [[^18F]PIPGal] | 0.1219 | 0.09843 | 0.06898 % ID per million cells | 0.3165 | 0.04018 | 0.3131 | High signal accumulation is observed in the cx-treated (senescent) tumors compared to the non-senescent controls |  | 
4 | OC[C@H]1O[C@@H](Oc2cc([18F])ccc2COc2c(F)c(F)cc(F)c2F)[C@H](O)[C@@H](O)[C@H]1O [[^18F]TFPBGal] | 4.745 | 2.761 | 7.514 % ID per million cells | 3.641 | 0.3992 | 2.444 |  | higher in CX-treated (senescent) tumors compared to untreated controls at all time points | no observable washout effect
5 | O=[N+]([O-])c1ccc(OCc2cc(NCCC[18F])ccc2O[C@@H]2O[C@H](CO)[C@H](O)[C@H](O)[C@H]2O)cc1 [[^18F]NO2BGal] | 0.5052 | 0.3026 | 0.9792 % ID per million cells | 1.286 | 0.3245 | 1.492 |  |  | 
